Consider two compounds from publication PMC2095803 (Nucleic Acids Research, 2007).

SMILES strings stand for the structures.

Assay [1] relates to AmpliTaqFS. The conditions noted are these: F667Y mutation in AmpliTaqFS; cited from earlier work.
Assay [2] addresses T1, Vent(exo−) DNA polymerase (Thermococcus litoralis, UniProt P30317, D141A/E143A).
T1 sequence (P30317 with tags, fused parts or gaps D141A/E143A): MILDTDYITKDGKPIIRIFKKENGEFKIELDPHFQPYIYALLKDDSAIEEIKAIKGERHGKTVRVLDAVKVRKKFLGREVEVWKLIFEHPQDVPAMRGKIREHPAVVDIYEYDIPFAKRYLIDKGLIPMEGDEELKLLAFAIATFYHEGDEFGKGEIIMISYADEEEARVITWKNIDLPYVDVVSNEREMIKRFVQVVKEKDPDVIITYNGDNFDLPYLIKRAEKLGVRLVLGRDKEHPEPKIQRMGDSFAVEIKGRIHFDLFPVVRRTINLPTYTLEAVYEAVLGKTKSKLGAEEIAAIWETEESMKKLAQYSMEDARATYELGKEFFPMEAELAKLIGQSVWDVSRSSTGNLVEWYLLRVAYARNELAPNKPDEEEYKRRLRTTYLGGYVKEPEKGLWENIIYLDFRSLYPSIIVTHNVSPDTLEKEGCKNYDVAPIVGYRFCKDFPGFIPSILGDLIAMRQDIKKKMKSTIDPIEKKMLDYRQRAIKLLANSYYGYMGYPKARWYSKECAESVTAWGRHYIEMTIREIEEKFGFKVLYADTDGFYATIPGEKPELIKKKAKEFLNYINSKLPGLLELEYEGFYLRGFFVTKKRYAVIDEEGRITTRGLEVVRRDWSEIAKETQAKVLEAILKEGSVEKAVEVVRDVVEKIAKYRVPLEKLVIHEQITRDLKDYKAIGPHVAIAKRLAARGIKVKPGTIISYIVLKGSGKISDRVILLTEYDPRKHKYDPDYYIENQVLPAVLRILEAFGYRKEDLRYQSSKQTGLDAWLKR
Briefly: PEP. The format is biochemical.

Assay [3] deals with T2, Therminator DNA polymerase (Thermococcus sp., UniProt Q56366, A485L/D141A/E143A).
T2 sequence (Q56366 1-775 D141A/E143A/A485L): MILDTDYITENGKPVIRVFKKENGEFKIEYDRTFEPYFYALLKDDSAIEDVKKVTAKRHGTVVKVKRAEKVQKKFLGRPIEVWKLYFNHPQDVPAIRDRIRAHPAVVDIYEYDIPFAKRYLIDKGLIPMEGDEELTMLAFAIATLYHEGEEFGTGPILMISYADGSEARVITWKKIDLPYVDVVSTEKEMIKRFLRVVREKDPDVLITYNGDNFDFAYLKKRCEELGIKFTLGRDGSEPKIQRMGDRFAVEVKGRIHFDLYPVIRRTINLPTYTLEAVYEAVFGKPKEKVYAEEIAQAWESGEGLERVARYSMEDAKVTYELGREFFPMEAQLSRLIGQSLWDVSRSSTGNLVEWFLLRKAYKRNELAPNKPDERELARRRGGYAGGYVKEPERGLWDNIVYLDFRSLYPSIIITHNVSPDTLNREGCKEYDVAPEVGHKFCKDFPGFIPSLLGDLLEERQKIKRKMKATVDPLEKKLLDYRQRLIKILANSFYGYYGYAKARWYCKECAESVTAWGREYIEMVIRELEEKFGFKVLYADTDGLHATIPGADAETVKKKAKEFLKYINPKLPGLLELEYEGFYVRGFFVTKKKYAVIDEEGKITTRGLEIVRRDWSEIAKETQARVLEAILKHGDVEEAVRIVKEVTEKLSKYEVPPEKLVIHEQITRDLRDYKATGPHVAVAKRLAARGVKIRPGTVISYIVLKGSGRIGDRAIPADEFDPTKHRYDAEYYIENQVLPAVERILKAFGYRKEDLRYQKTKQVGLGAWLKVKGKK
Briefly: PEP. The format is biochemical, Thermococcus species 9ºN-7.

The target of assay [4] is T3, Bst DNA polymerase (Geobacillus stearothermophilus, UniProt P52026).
T3 sequence (P52026 289-876 limits assumed): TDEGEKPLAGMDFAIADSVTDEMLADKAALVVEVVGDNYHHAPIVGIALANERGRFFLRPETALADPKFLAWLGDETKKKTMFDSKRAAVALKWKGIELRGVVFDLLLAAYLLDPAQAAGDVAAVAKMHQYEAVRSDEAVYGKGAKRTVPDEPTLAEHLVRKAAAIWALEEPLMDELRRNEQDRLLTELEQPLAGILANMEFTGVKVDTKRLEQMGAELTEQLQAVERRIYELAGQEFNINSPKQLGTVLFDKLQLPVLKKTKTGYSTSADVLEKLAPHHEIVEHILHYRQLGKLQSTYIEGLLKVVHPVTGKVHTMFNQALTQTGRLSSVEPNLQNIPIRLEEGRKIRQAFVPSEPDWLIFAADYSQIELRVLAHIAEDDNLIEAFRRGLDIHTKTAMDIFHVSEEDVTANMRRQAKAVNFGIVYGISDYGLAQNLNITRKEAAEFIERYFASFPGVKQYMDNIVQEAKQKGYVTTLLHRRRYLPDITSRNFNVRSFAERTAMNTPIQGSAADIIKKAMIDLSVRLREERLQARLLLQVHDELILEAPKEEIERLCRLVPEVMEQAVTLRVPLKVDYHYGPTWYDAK
Briefly: PEP termination assay. The format is biochemical, Bacillus stearothermophilus.

For assay [5], the target named is T1, Vent(exo−) DNA polymerase. Briefly: PEP termination assay. In kind it is biochemical.
Where [6] appears, read: Therminator, ratio of IC50 values.

The term IC50 denotes the concentration that inhibits the measured activity by half. Higher therefore signals weaker potency. As to `Nc1ncnc2c1ncn2[C@H]1CC[C@@H](COP(=O)(O)OP(=O)(O)OP(=O)(O)O)O1` [ddATP, 2′,3′-dideoxyadenosine triphosphate, reference compound], the “Ratio ddATP over dATP” value in assay [1] is listed as 0.59. The figures for the IC50 in assay [2] and in assay [3] were 550 ± 40 nM and 9.7 ± 1.1 nM, respectively. Besides, the “Incorporation bias ddATP/dATP” value in assay [3] (setting [6]) came to 4.2.
In assay [4], `O=[N+]([O-])c1ccccc1CNc1ncnc2c1ncn2[C@H]1C[C@H](O)[C@@H](COP(=O)(O)OP(=O)(O)OP(=O)(O)O)O1` [Compound IIIc, N^6-(2-Nitrobenzyl)-2’-deoxyadenosine-5’-triphosphate] had an IC50 of 10 nM. Also, in assay [4] (Bst, 25× IC50, oligoTemplate-3), the “% 1st Base” value is given as 99.1 ± 0.3%, the “% 2nd Base” value was below 0.1% and the “% Primer” value came to 0.9 ± 0.3%. Also, the “Extension / termination of DNA synthesis on 10-thymidine template” value in assay [4] (Bst, at 25× its IC50 value) is “efficiently incorporated and terminated Bst DNA synthesis at the first-base position”. The compound also registered an IC50 in assay [2] of 2.1 ± 0.2 nM. The compound further came in with an IC50 in assay [5] of 2.1 nM. In addition, in assay [3] (setting [6]), the “Incorporation bias Cpd IIIc/dATP” value is 1.3 and the “Incorporation bias Cpd IIIc/ddATP” value is 0.32.
